# From US20260216169A1, “NAPHTHYLAMIDE COMPOUND, AND PREPARATION METHOD THEREFOR AND USE THEREOF” (SHENZHEN CHIPSCREEN BIOSCIENCES CO., LTD., priority 2022, published 2026)
# Experiments:
# Molt-4 cells = assay: Effects on tumor cell cycle, PI staining and flow cytometry; assay type: cell-based, human; conditions: 48 h
# Description: When the activity of Aurora B kinase is inhibited in tumor cells, the arrangement and separation of chromosomes are blocked, leading to cytokinesis failure and the formation of tetraploid or polyploid cells. Moreover, severe genomic instability and mitotic catastrophe result in apoptosis. The intracellular DNA content can be mapped with propidium iodide (PI), a fluorescent dye that specifically binds to nucleic acid, so that cell states can be distinguished into sub-G0/G1 (apoptosis), G0/G1, S, G2/M (tetraploid), and polyploid states.
# Experimental process: Molt-4 cells (human acute lymphoblastic leukemia cells, CRL-1582) were purchased from the American Type Culture Collection (ATCC). Molt-4 cells in the logarithmic growth phase were collected from suspension culture and counted. The cells were seeded into a 6-well plate at 10^6 cells/well and cultured overnight under normal conditions. The test compounds were prepared as 1 mM and 3 mM solutions in DMSO, and the solutions in DMSO were diluted 50-fold with culture medium. Finally, the above solutions were added to the culture system in a volume ratio of 1:19, achieving a final compound concentration of 1 μM or 3 μM in each well. After 48 h of incubation, the cells were collected by centrifugation. Each cell sample was resuspended in 300 μL of PBS, and the suspension was added dropwise to 700 μL of pre-cooled absolute ethanol. Then the mixture was gently inverted several times for thorough mixing to complete cell collection and fixation. The samples were left to stand at 4° C. for more than 12 h and then analyzed by flow cytometry.
# A working dye solution was prepared by homogeneously mixing PBS, a 10 mg/mL PI stock solution, and a 10 mg/mL RNase A solution in a ratio of 1000:5:2. The fixed cell samples were centrifuged at 4° C. and 1000 rpm for 10 min. The supernatants were completely removed using a pipette, and the cells were washed twice with PBS and resuspended in the above working dye solution at […]. After incubation in a dark place at 37° C. for 30 min, the cells were filtered using a 200-mesh stainless steel strainer, and the filtrate was loaded onto a flow cytometer for cell cycle analysis (10,000 cells counted per sample).
# Histograms showing DNA contents were obtained from the flow cytometry analysis, and the cell cycle distribution in each sample was analyzed using the flow cytometry data analysis software FlowJo. The mean (X) and standard deviation (SD) were calculated, and data were represented as X±SD. The apoptosis and the proportions of tetraploid and polyploid cells after Molt-4 cells were treated with different doses of the test compounds are shown in Table 3 below.
# Aurora B kinase [1] = biological target: T1, Aurora B kinase (Homo sapiens, UniProt Q96GD4); assay: HTRF KinEASE test of inhibitory activity against Aurora B kinase; assay type: biochemical; design: purchased Carna 05-102; conditions: Carna kinase, substrate S2
# Experimental: (§1) Preparation of working solutions of compounds in DMSO with gradient concentrations: 0.2 mM solutions of the compounds in DMSO were prepared and serially diluted with DMSO to form working solutions with 10 gradient concentrations (corresponding to final compound concentrations of 1000 nM, 300 nM, 100 nM, 30 nM, 10 nM, 3 nM, 1 nM, 0.3 nM, 0.1 nM, and 0.03 nM in the reaction system).
# (§2) Tests of inhibitory activity against Aurora B kinase and VEGFR2: The half maximal inhibitory concentrations (IC50) of the compounds against Aurora B kinase and VEGFR2 were determined using HTRF KinEASE-TK kit (Cisbio, Cat #62TKOPEC) and HTRF KinEASE-STK kit (Cisbio, Cat #61ST2BLE). A 2× kinase & Metal solution (Aurora B/Cat #05-102 and VEGFR2/Cat #08-191, both purchased from Carna) and a 2× Substrate & ATP solution (for Aurora B and VEGFR2, substrates S2 and TK were used, respectively) were prepared according to the kit instructions. The working solutions of the test compounds with gradient concentrations were added to a 384-well plate at 25 nL/well, and 2.5 μL of the 2× kinase & Metal solution was added to each well. The plate was sealed with a plate-sealing film, well shaken, centrifuged, and then incubated at 25° C. for 10 min. Then, the 2× Substrate & ATP solution was added at 2.5 μL/well, and the plate was incubated again at 25° C. for 30 min. Finally, a 2× XL665 & Antibody kinase detection reaction solution was added at 5 μL/well. After the plate was incubated at 25° C. for 60 min, the fluorescence signals at wavelengths of 665 nm and 620 nm in each well were measured by a microplate reader.
# (§3) The 665 nm/620 nm fluorescence signal ratio (X) of each well was calculated. With the compound-free well as a negative control (Y) and the enzyme-free well as a positive control (Z), the inhibition rate of the compound in each test well against the corresponding kinase was calculated using the formula: inhibition (%)=100%−(X−Z)/(Y−Z)×100%, and the half maximal inhibitory concentration (IC50) of each compound against the corresponding kinase was calculated by GraphPad 7.0 software.
# Target sequence in this assay (Q96GD4 whole entry): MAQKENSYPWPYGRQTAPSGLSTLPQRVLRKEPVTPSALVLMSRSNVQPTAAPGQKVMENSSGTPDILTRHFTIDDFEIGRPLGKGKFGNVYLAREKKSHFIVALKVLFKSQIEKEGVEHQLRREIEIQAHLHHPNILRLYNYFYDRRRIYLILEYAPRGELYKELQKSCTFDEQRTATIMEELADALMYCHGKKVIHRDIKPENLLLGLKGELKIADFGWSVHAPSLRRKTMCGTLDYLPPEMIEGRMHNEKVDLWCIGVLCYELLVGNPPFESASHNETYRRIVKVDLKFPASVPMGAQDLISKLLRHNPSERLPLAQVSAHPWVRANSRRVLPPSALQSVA
# Target sequence in this assay (Q9NQS7 803-916 partner limits assumed): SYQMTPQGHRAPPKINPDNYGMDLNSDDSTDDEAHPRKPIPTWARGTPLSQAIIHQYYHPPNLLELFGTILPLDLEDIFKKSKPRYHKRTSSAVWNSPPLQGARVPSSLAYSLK
# PANC02 cells = assay: Anti-tumor efficacy in PANC02 mouse pancreatic cancer graft tumor model; assay type: in vivo, C57BL/6 mice; conditions: for Mean tumor volumes (mm^3 ± SEM), Day 9 / Tumor volume inhibition rate (% TGI), Day 9: 10 mg/kg/day intragastric once daily; for Mean tumor volumes (mm^3 ± SEM), Day 0: 10 mg/kg/day intragastric, grouping and administration Day 0
# Description: A mouse PANC02 pancreatic cancer graft tumor model was constructed: the experimental animals were C57BL/6 mice (female, 6 weeks old), the tumor cells were PANC02 cells (mouse pancreatic cancer cells), and the cell culture medium was a DMEM culture medium containing 1% double antibiotic and 10% fetal bovine serum. PANC02 cells in the logarithmic growth phase and in good condition were collected and inoculated subcutaneously into the left flank of C57BL/6 mice at a concentration of 0.9×10^6 cells/0.2 mL. The long diameters (a, mm) and short diameters (b, mm) of the tumors were measured using a vernier caliper, and tumor volume (V, mm^3) was calculated using the formula: V=½a×b^2. Tumor volume was measured 2-3 times weekly using the vernier caliper. When the mean tumor volumes of the mice reached 190 mm^3 or above, the mice were divided into 4 groups of 8 and dosed, and the day of grouping was represented by day 0. The groups were as follows: a solvent control group (0.2% aqueous solution of CMC-Na), a compound I-9 group (10 mg/kg/day), a control molecule 01 (chiauranib) group (10 mg/kg/day), and a control molecule 02 group (10 mg/kg/day). All four groups received intragastric administration once daily for consecutive days, and the experiment was terminated on the day of the last dose.
# The tumor volume results were represented as mean and standard error (Mean±S.E.M). Intergroup comparisons were performed using the Mann Whitney test. If p<0.05, the difference is considered to be statistically significant. The tumor volume inhibition rate (TGI) was calculated using the formula: TGI (%)=[1−(Ti−T0)/(Vi−V0)]×100% (Ti: mean tumor volume of the treatment group on day i of administration; TO: mean tumor volume of the treatment group on day 0 of administration; Vi: mean tumor volume of the solvent control group on day i of administration; V0: mean tumor volume of the solvent control group on day 0 of administration).
# VEGFR2 = biological target: T2, VEGFR2 (Homo sapiens, UniProt P35968); assay: HTRF KinEASE test against VEGFR2, reported as relative selectivity IC50-VEGFR2/IC50-Aurora B; assay type: biochemical; conditions: ratio of IC50 against VEGFR2 to IC50 against Aurora B
# T2 construct: purchased Carna 08-191
# T2 sequence (P35968 790-1356 limits assumed): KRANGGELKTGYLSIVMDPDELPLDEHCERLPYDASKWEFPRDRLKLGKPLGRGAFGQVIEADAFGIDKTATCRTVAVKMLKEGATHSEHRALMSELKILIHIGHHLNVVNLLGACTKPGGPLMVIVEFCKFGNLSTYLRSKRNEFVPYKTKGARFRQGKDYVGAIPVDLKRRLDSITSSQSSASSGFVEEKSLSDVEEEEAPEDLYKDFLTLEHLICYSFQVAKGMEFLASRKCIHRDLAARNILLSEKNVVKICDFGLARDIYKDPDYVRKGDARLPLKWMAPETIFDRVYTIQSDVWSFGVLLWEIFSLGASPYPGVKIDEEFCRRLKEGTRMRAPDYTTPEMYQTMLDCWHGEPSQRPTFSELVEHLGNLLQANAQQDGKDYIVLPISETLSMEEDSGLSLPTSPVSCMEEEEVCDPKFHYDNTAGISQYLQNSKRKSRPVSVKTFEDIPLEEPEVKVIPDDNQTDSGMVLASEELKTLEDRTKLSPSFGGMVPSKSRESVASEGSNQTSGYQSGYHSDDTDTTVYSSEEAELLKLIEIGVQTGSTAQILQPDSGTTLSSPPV
# Experimental: as §1, §2, §3
# [2] = Brain permeation assay in mice; assay type: in vivo; conditions: B/C, mouse, oral; female mice, 5 mg/kg intragastric, 4 h after administration; read-out: Brain permeation (ratio of compound concentration in brain tissue to concentration in plasma)
# Experimental: The objective of this example was to test whether the compounds of the present disclosure are able to cross the blood-brain barrier (BBB). The compounds of the present disclosure were dissolved in a vehicle containing 5% dimethyl sulfoxide, 60% 1,3-propanediol, and 35% purified water, and intragastrically administered to B/C female mice aged 6 weeks (purchased from Guangdong Medical Laboratory Animal Center) at 5 mg/kg. The animals were sacrificed 4 h after the administration, and blood and brain tissue samples were collected. The blood samples were anticoagulated with K2-EDTA and centrifuged at 5000 rpm for 5 min to separate plasma. The brain tissue samples were accurately weighed and homogenized with a certain amount of phosphate-buffered saline (PBS) solution, and the biological samples were stored at −80° C. before analysis. After sample extraction, the compound concentration was determined using a liquid chromatography-tandem mass spectrometry (LC-MS/MS) system. Brain permeation was defined as the ratio of the compound concentration in brain tissue to the concentration in plasma.
# [3] = human, 65-mg treatment group, phase I; cited from earlier work
# Aurora B kinase [4] = biological target: T1, Aurora B kinase; assay: In vitro cytological assays of Aurora B kinase inhibition; assay type: cell-based; design: dose or concentration left out as unconfirmed
# Target sequence in this assay (Q96GD4 whole entry): as the sequence (Q96GD4 whole entry) above
Compound,Apoptosis (%) DNA < 2N (Molt-4 cells; dose 1 μM) [%],Polyploid (%) DNA > 4N (Molt-4 cells; dose 1 μM) [%],Tetraploid (%) DNA = 4N (Molt-4 cells; dose 1 μM) [%],Total (apoptosis + tetraploid + polyploid) (Molt-4 cells; dose 1 μM),Apoptosis (%) DNA < 2N (Molt-4 cells; dose 3 μM) [%],Polyploid (%) DNA > 4N (Molt-4 cells; dose 3 μM) [%],Tetraploid (%) DNA = 4N (Molt-4 cells; dose 3 μM) [%],Total (apoptosis + tetraploid + polyploid) (Molt-4 cells; dose 3 μM),IC50 (Aurora B kinase [1]) [nM],"Mean tumor volumes (mm^3 ± SEM), Day 9 (PANC02 cells) [mm^3]","Tumor volume inhibition rate (% TGI), Day 9 (PANC02 cells) [%]","Mean tumor volumes (mm^3 ± SEM), Day 0 (PANC02 cells) [mm^3]",Selectivity for Aurora B IC50-VEGFR2/IC50-Aurora B (VEGFR2),Kp at 4 h [2],other results
COc1ccc2c(Oc3ccc4c(C(=O)Nc5ccc(F)c(F)c5N)cccc4c3)ccnc2c1 [Compound I-9],24.60 ± 8.06,55.15 ± 15.20,6.07 ± 7.25,85.82,21.35 ± 5.87,56.10 ± 12.02,5.39 ± 6.10,82.84,1.79,145.9 ± 38.5,114.0,193.9 ± 38.5,17.57,0.6,"Tumor volume compared with solvent control group (PANC02 cells; Day 9, Mann Whitney test, p<0.001): significantly reduced tumor volumes; Tumor volume compared with control molecule 01 (chiauranib) group (PANC02 cells; Day 9, Mann Whitney test, p<0.01): significantly reduced tumor volumes; Tumor volume compared with control molecule 02 group (PANC02 cells; Day 9, Mann Whitney test, p<0.05): significantly reduced tumor volumes"
"COc1ccc2c(Oc3ccc4c(C(=O)Nc5ccccc5N)cccc4c3)ccnc2c1 [Control molecule 01, chiauranib, reference compound]",10.23 ± 0.67,3.73 ± 2.95,14.80 ± 6.51,28.76,16.40 ± 6.65,6.40 ± 5.66,16.25 ± 8.13,39.05,10.8,278.4 ± 35.6,74.6,191.5 ± 33.9,1.54,0.28,"Dose-limiting toxicity (DLT) [3]: grade 3 hypertension; Tumor volume inhibition rate (% TGI), Day 9 (PANC02 cells; listed as control molecule 01): 74.6%; Inhibitory activity against Aurora B kinase (Aurora B kinase [4]): relatively weak inhibitory activity"
"COc1ccc2c(Oc3ccc4c(C(=O)Nc5ccc(F)cc5N)cccc4c3)ccnc2c1 [Control molecule 02, reference compound]",10.07 ± 1.18,7.94 ± 3.77,18.05 ± 0.35,36.06,23.80 ± 2.26,55.70 ± 1.41,8.40 ± 4.96,87.90,2.08,299.3 ± 68.2,68.9,192.7 ± 36,4.16,0.27,"Tumor volume inhibition rate (% TGI), Day 9 (PANC02 cells; listed as control molecule 02): 68.9%"
